According to ChEMBL document CHEMBL1152566, “Synthesis and activity of azaterphenyl diamidines against Trypanosoma brucei rhodesiense and Plasmodium falciparum” (Bioorg Med Chem, 2009):
Active and inactive are the calls of the source. The calls are words filed in the database; no cut-off is given here.

Columns and labels:
[1] = system: Trypanosoma brucei rhodesiense; experiment: Antitrypanosomal activity against Trypanosoma brucei rhodesiense STIB900; assay type: functional, organism-based
[2] = system: Trypanosoma brucei rhodesiense; experiment: Antitrypanosomal activity against Trypanosoma brucei rhodesiense STIB900 infected in NMRI mouse assessed as survival days at 5 mg/kg, ip; assay type: functional; conditions: route intraperitoneal
[3] = system: Plasmodium falciparum; experiment: Antiplasmodial activity against Plasmodium falciparum K1; assay type: functional, organism-based
[4] = system: Trypanosoma brucei rhodesiense; experiment: Antitrypanosomal activity against Trypanosoma brucei rhodesiense STIB900 infected in NMRI mouse assessed as survival at 5 mg/kg, ip; assay type: functional, organism-based; parameters: dose 5 mg/kg
[5] = system: Trypanosoma brucei rhodesiense; conditions: dose 20 mg/kg; route intraperitoneal
Description: Antitrypanosomal activity against Trypanosoma brucei rhodesiense STIB900 infected in NMRI mouse assessed as survival days at 20 mg/kg, ip

[6] = system: Trypanosoma brucei rhodesiense; experiment: Antitrypanosomal activity against Trypanosoma brucei rhodesiense STIB900 infected in NMRI mouse assessed as survival at 20 mg/kg, ip; assay type: functional, organism-based; parameters: dose 20 mg/kg

| SMILES | IC50 [1] | Survival [2] | IC50 [3] | Activity [4] | Survival [5] | Activity [6] |
| --- | --- | --- | --- | --- | --- | --- |
| N=C(N)c1ccc(-c2ccc(-c3ccc(C(=N)N)nc3)cn2)cc1 | 6 nM | >60 days | 1.1 nM | – | – | – |
| N=C(N)c1ccc(-c2ccc(-c3ccc(C(=N)N)cc3)nn2)cc1 | 14 nM | >49.25 days | 1.3 nM | – | – | – |
| N=C(N)c1ccc(-c2ccc(-c3ccc(C(=N)N)nc3)cc2)cc1 | – | >48.75 days | – | inactive | – | – |
| N=C(N)c1ccc(-c2cnc(-c3ccc(C(=N)N)cc3)nc2)cc1 | – | 23.5 days | – | inactive | – | – |
| N=C(N)c1ccc(-c2ccc(-c3ccc(C(=N)N)cc3)nc2)cc1 | 2 nM | >42 days | 10 nM | – | – | – |
| N=C(N)c1ccc(-c2ccc(-c3cnc(C(=N)N)nc3)cc2)cc1 | 4 nM | >46.25 days | 0.6 nM | – | – | – |
| N=C(N)c1ccc(-c2ccc(-c3ccc(C(=N)N)cc3)cc2)cc1 | 5 nM | – | 1.4 nM | – | >47.75 days | – |
| N=C(N)c1ncc(-c2ccc(-c3cnc(C(=N)N)nc3)cc2)cn1 | 6 nM | >43.25 days | 0.6 nM | – | – | – |
| N=C(N)c1ccc(-c2ccc(-c3cnc(C(=N)N)nc3)cn2)cc1 | 12 nM | >43.25 days | 1.5 nM | inactive | – | – |
| N=C(N)c1ccc(-c2ccc(-c3cnc(C(=N)N)cn3)cn2)cc1 | – | >31.75 days | 5.7 nM | – | – | – |
| N=C(N)c1ccc(-c2ccc(-c3ccc(C(=N)N)cc3)o2)cc1 [FURAMIDINE] | – | >46 days | – | – | >57.75 days | – |
| N=C(N)c1ccc(-c2ccc(-c3ccc(C(=N)N)nc3)cc2)cn1 | – | >51.5 days | – | inactive | – | – |
| N=C(N)c1ccc(-c2cnc(-c3ccc(C(=N)N)cc3)cn2)cc1 | 18 nM | 36.5 days | 0.4 nM | inactive | – | – |
| N=C(N)c1ccc(-c2ccc(-c3ccc(C(=N)N)cn3)cn2)cc1 | – | >60 days | 2.5 nM | – | – | – |
| N=C(N)c1ccc(-c2ccc(-c3ccc(C(=N)N)cn3)cc2)nc1 | 47 nM | >60 days | 10.1 nM | – | – | – |
| N=C(N)c1ccc(-c2ccc(-c3ccc(C(=N)N)cn3)o2)cc1 | – | >54.5 days | – | – | >60 days | Active |
| N=C(N)c1ccc(-c2ccc(-c3ccc(C(=N)N)cn3)cc2)cc1 | – | >56 days | 1.3 nM | – | – | – |
